Laboratory results taken from ChEMBL document CHEMBL3352647, “Synthesis and characterization of novel 1,2-oxazine-based small molecules that targets acetylcholinesterase” (Bioorg Med Chem Lett, 2014).

What was measured:
[1] = Inhibition of soybean 5-LOX by spectrophotometry; design: species or system Glycine max
Acetylcholinesterase = Acetylcholinesterase (Homo sapiens, UniProt P22303); experiment: Inhibition of AChE (unknown origin) using ACh chloride as substrate preincubated for 15 mins before substrate addition by Ellman method
Sequence of Acetylcholinesterase (P22303 whole entry): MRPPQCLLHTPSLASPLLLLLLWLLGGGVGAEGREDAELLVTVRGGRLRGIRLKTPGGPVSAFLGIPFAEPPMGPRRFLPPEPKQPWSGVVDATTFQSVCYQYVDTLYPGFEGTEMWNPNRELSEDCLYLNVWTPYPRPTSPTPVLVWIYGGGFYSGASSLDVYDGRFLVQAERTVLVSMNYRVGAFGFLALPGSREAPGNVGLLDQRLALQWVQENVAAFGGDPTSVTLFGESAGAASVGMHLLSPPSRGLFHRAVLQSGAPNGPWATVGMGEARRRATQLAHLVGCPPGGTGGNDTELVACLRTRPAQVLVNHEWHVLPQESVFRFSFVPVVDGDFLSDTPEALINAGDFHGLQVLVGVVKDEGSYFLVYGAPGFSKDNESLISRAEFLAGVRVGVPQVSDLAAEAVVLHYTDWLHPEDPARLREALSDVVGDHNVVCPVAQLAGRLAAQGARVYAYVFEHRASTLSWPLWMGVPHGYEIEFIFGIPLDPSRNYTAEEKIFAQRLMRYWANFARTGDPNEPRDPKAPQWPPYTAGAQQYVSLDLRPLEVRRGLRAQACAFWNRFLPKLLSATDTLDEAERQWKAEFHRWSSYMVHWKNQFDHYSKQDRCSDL

| Compound | IC50 [1] | IC50 (Acetylcholinesterase) |
| --- | --- | --- |
| COC(=O)C(CC1=NOC(C)(C)C[C@H]1c1ccc(OC)cc1)C(=O)OC | 66.9 µM |  |
| CC1(C)C[C@@H](c2ccccc2)C(CN2C(=O)c3ccccc3C2=O)=NO1 | 30 µM | 65.3 µM |
| COC(=O)C(CC1=NO[C@@H]2CCCC[C@@H]2[C@H]1c1ccc(OC)cc1)C(=O)OC | 33.8 µM |  |
| COC(=O)C(CC1=NO[C@@H]2[C@@H]3CC[C@@H](C3)[C@@H]2[C@H]1c1ccccc1)C(=O)OC | 21.1 µM |  |
| CC(=O)N1OC(C)(C)CC(c2ccccc2)=C1CN1C(=O)c2ccccc2C1=O | 1.88 µM | 2.5 µM |
| COC(=O)C(CC1=C(c2ccc(OC)cc2)CC(C)(C)ON1C(C)=O)C(=O)OC | 1.23 µM | 14.3 µM |
| COC(=O)C(CC1=C(c2ccccc2)CC(C)(C)ON1C(C)=O)C(=O)OC | 6.32 µM | 12 µM |
| COC(=O)C(CC1=C(c2ccc(Cl)cc2)CC(C)(C)ON1C(C)=O)C(=O)OC |  | 46.8 µM |
| COC(=O)CC1=NO[C@@H]2CCCC[C@@H]2[C@H]1c1ccccc1 | 16.1 µM | 35.1 µM |
| COC(=O)CC1=NO[C@@H]2[C@H]3CC[C@H](C3)[C@@H]2[C@H]1c1ccccc1 | 16.7 µM | 6.3 µM |
| COC(=O)C(CC1=NO[C@@H]2CCCC2[C@H]1c1ccccc1)C(=O)OC (single isomer, unassigned) | 81.7 µM | 75.4 µM |
